One compound from article PMC8510480, “Searching Anti-Zika Virus Activity in 1H-1,2,3-Triazole Based Compounds” (Molecules, 2021) can be followed below.

Read-outs that look alike come from different tables or passages of the source.

The experiment concerns ZIKV. Briefly: Post-infection test with ZIKV in Vero cells. To be noted: for inhibition at 136.9 µM: CC20 (4b 136.90 µM; 6MMPr 60.50 µM); for inhibition at 136.9 µM / inhibition at 68.45 µM / inhibition at 34.23 µM / inhibition at 17.11 µM: read-out: % Viral Inhibition; for inhibition at 68.45 µM: CC20/2 (4b 68.45 µM; 6MMPr 30.25 µM); for inhibition at 34.23 µM: CC20/4 (4b 34.23 µM; 6MMPr 15.13 µM); for inhibition at 17.11 µM: CC20/8 (4b 17.11 µM; 6MMPr 7.6 µM). In kind it is cell-based, Zika virus. The method, then: We then investigated the activity of compound 4b after ZIKV infection in cells. As already noted in the screening test, 4b reduced ZIKV growth to levels similar to 6MMPr, a positive control previously described by our group. As in the pre-treatment test, four different concentrations were used, with the maximum being CC20 (136.90, 68.45, 34.22 and 17.11 µM). […] It is worth highlighting the constant decrease in the viral titer, even in lower concentrations, while the positive control 6MMPr reduces it only in the highest concentrations.
Statistical analysis compared the concentrations of each compound at each collection time (3 d.p.i. and 5 d.p.i.) with a t-test.
Figure 6 Comparison of anti-ZIKV activity between 6MMPr and 4b after three- and five-days post-infection (d.p.i.). 6MMPr and compound 4b were submitted to a post-infection test when Vero cells was infected with ZIKV at MOI 0.1 for 2 h then treated with compounds. Concentrations used in the test corresponded to CC20 (4b = 136.90 µM; 6MMPr = 60.50 µM), CC20/2 (4b = 68.45 µM; 6MMPr = 30.25 µM), CC20/4 (4b = 34.22 µM; 6MMPr = 15.13 µM) and CC20/8 (4b = 17.11 µM; 6MMPr = 7.56 µM). The experiment was done in triplicates and values are the mean and the SD. Statistical analysis was made between compounds using t-test on GraphPad Prism program. * = significative; ns = not statistically significant for p < 0.05. (a) 3 d.p.i. from both compounds. (b) 5 d.p.i. from both compounds.
96-well plates with 1 × 10^4 cell/well were used in this assay and prepared 24 h previously. Seven serial dilutions of the virus were prepared in DMEM + 2% FBS culture medium. After removing the culture medium from the plate, 50 µL of each dilution was added to the wells in several repetitions. The plate was incubated at 37 °C and 5% atm CO2 for 1 h. After this interval, each well of the plate received an additional 100 µL of DMEM + 2% FBS culture medium. The plate was incubated again, in the same parameters, for 5 days. Some columns of the plate were selected for use as a cell control (culture medium only, no virus). The reading was performed in an inverted optical microscope AE2000, Motic (Motic, Kowloon Bay, Hong Kong) counting positives wells by the presence of cytopathic effect and the determination of the sample title was performed with the aid of the Microsoft Office Excel program (Microsoft® Office, Redmond, WA, USA).
48-well plates with 2.5 × 10^4 cells/well were prepared 24 h previously. A ZIKV solution at MOI 0.1 was inoculated into the wells and the cells incubated at 37 °C and 5% CO2 atmosphere. After 2 h, the culture medium was removed, and the wells were washed with 1X PBS. 2:1 dilution of 4b (136.90 µM, 68.45 µM, 34.22 µM and 17.11 µM) and 6MMPr (60.50 µM, 30.25 µM, 15.13 µM and 7.56 µM) were added in triplicate. The cells were again incubated for 72 h and 120 h. The supernatants from the wells were collected and titrated.

As to `O=C1C(Br)=C(NCc2cn(CN3C(=O)c4ccccc4C3=O)nn2)C(=O)c2ccccc21` [Compound 4b], for the setting “Zika virus, 72 h, 3 d.p.i.”, the inhibition at 136.9 µM turned out to be 94.9%, the inhibition at 68.45 µM came out at 85.6% and the inhibition at 34.23 µM stood at 85.8%. The inhibition at 17.11 µM (Zika virus, 72 h, 3 d.p.i., negative = increased virus titer compared to control) was determined as 88.8%. Besides, where the note is “Zika virus, 120 h, 5 d.p.i.”, the inhibition at 136.9 µM was 97.5%, the inhibition at 68.45 µM came to 93.7%, the inhibition at 34.23 µM was 90.8% and the inhibition at 17.11 µM amounted to 96.8%. The IC50 (Zika virus, Vero, read-out: IC50 (50% inhibition concentration, virus replication)) was determined as 146 µM. Besides, the “% Viral Inhibition” value (post-infection test, Table 4, concentration and time not stated) is reported as 91.1%. For the same compound, the “effect on growth of the virus (viral titer)” value (post-infection, four concentrations from CC20 to CC20/8, 3 and 5 d.p.i.) is recorded as “inhibits the growth of the virus at all concentrations used”. Also, the “SI (selectivity index)” value (ratio between the CC50 and IC50 values) amounted to 2.3.

The inhibition is the share of the control response that was lost under treatment.
